Test results published in US20180271930A1, “METHOD FOR RAISING POULTRY” (priority 2015, published 2018).

Assays:
[1] = Examination 2-1: breeding performance at 21 and 28 days old after GSSG prestarter feed; format: in vivo, broiler chicks; conditions: 0.01% by mass GSSG feed for first 72 h, n = 6
Description: Newly hatched broiler chicks (Ross Breeders Ltd.) were fed with a feed composition for 3 days. The feed composition contained GSSG at a level of 0.01% by mass which was thought to be appropriate based on Examination 1. […] Two groups, which were a control group and a GSSG addition group (0.01% by mass), were set. In each group, 6 males and 6 females were tested. Chicks received at 0 day old were fed with a test feed composition (initial-phase feed composition) during 72 hours after the receipt. […] Their body weights, breast meat weights, leg meat weights, and liver weights were measured. As the initial-phase feed composition, the feed composition comprising 0.01% by mass of GSSG used in Examination 1 was used for the GSSG addition group, and the feed composition (ME3,100 kcal/kg, CP21) free of GSSG used in Examination 1 was used for the control group. […] An ammonium salt was used as oxidized glutathione (GSSG). The GSSG contained 95.6% by mass of oxidized glutathione, and the content of reduced glutathione mixed therein was 0.1% by mass or less.

myostatin = experiment: Examination 3: myostatin mRNA expression in skeletal muscle cells in differentiation medium; format: cell-based, broiler chicks (Ross 308); conditions: 100 μM GSSG in differentiation medium; cells recovered 0, 12, 24 h; FIG. 2B, n=6
Excerpt: FIGS. 2A to 2D illustrate graphs showing the expression levels of genes related to skeletal muscle cell differentiation upon the addition of GSSG during the skeletal muscle cell differentiation period in Examination 3 (n=6). […] A relative value of the expression level of each factor is expressed as an average±standard deviation of values obtained by dividing the expression levels of each factor by the expression level of RPS9. Each different symbol denotes a significant difference in the […] multiple comparison test (P<0.05). Oxidized glutathione (GSSG) was added to a differentiation-promoting culture medium system of skeletal muscle cells collected from newly hatched broiler chicks (Ross 308, Ross Breeders Ltd.) (under culture conditions simulating the state of skeletal muscle cells of neonatal chicks), phosphorylation of signal factors was analyzed by Western blot, and the differentiation inhibition mechanism was investigated. Expression levels of MyoD, myostatin, IGF-I, and Pax7 as genes involved in myogenesis were determined. Pax7 is a muscle satellite cell marker. […] The expression level of Pax7 was determined by the method described in Examination 1 except that the primer set used herein was a primer set listed in the table below. […] The cells were recovered 0, 12, and 24 hours later, and the expression levels of genes involved in myogenesis were determined. […]

myogenin = experiment: Examination 4: myogenin gene expression in superficial pectoral muscle at 3 days old; format: in vivo, broiler chicks; conditions: 0.01% by mass additive in feed for 3 days, FIG. 3A, n=4
Description: FIGS. 3A to 3C illustrate graphs showing the expression of genes related to skeletal muscle cell differentiation in superficial pectoral muscles upon administration of each feed composition in Examination 4 (n=4). […] A relative value of the expression level of each factor is expressed as an average±standard deviation of values obtained by dividing the expression levels of each factor by the expression level of RPS9. Newly hatched broiler chicks (Ross Breeders Ltd.) were tested. A control group (=additive-free group), a GSSG addition group (0.01% by mass), and a GSH addition group (0.01% by mass) each consisting of 5 males and 5 females were set and fed with a feed composition for 3 days. […] At this timing, 2 males and 2 females in each group were slaughtered to collect blood and skeletal muscles. The gene expression levels of the MyoD family (myogenin, myostatin, and Pax7) were observed. […] Statistics were analyzed using a mixed model in consideration of a gender difference and an interaction between males and females. A method for determining gene expressions of the above factors in skeletal muscles is described above. An ammonium salt was used as oxidized glutathione (GSSG). The GSSG contained 95.6% by mass of oxidized glutathione, and the content of reduced glutathione mixed therein was 0.1% by mass or less. […]

[2] = Examination 7: body weight at 14 days old after GSSG feed until 3, 7 or 14 days old; format: in vivo, broiler chicks; conditions: n = 12
Description: In each group, 6 males and 6 females were tested. […] The chicks were raised until they became 14 days old, and then, their body weights were measured. The feed composition (ME3,100 kcal/kg, CP21) free of GSSG used in Examination 1 was used for the control group. In the control group the chicks were raised until they became 14 days old and their body weights were measured. In the test groups 1 to 3, a feed composition used as an initial-phase feed composition, for which the level of GSSG to be added was set to 0.05% by mass, is a composition prepared by adding GSSG at 0.05% by mass to a composition (ME3,100 kcal/kg, CP21) containing corn, soybean meal, corn gluten meal, fat and oil, calcium carbonate (powder), tricalcium phosphate, dietary salt, DL-methionine, L-lysine chloride, choline chloride, and vitamins/minerals in accordance with the NRC requirements. […] An ammonium salt was used as GSSG. The GSSG contained 95.6% by mass of oxidized glutathione, and the content of reduced glutathione mixed therein was 0.1% by mass or less.

oxidized glutathione [GSSG]
Breast meat ([1]; 21 days old): 118 ± 4 g
Leg meat ([1]; 21 days old): 136 ± 6 g
Weight ([1]; 21 days old): 933 ± 65 g
Breast meat ([1]; 28 days old): 186 ± 15 g
Leg meat ([1]; 28 days old): 206 ± 12 g
Weight ([1]; 28 days old): 1500 ± 149 g
mRNA expression level of myostatin vs control (myostatin): significant decrease
myogenin expression level vs control group (myogenin): significantly decreased
14-day-old weight ([2]; 0.05% by mass GSSG feed until 3 days old): 393 ± 17 g
14-day-old weight ([2]; 0.05% by mass GSSG feed until 7 days old): 391 ± 24 g
14-day-old weight ([2]; 0.05% by mass GSSG feed until 14 days old): 351 ± 47 g
